Data as given in patent publication US20090076029A1 (Palatin Technologies, Inc., priority 2007, published 2009).

System: T1, mutant L250Q MC4-R
T1 construct: expressed in transfected cells
Assay: Reversal of AgRP inverse agonism in cells expressing mutant L250Q MC4-R
Assay type: cell-based, human
Settings: HEK-293 cells expressing mutant L250Q MC4 receptors; FIG. 8
Source text: Expression of recombinant mutant hMC4-R in which a glutamine is exchanged for leucine in amino acid position 250 (L250Q) results in production of increased levels of cAMP in the absence of agonist (Vaisse C. et al., Melanocortin-4 receptor mutations are a frequent and heterogeneous cause of morbid obesity. J Clin Invest 106:253-262, 2000). In some cases, reversal of the inverse agonist activity of AgRP was examined in cells that expressed mutant L250Q MC4-R coupled to a high level of constitutive activity. FIG. 8 illustrates the results obtained with the mutant L250Q MC4-R system.

CC(C)C[C@@H]1CN(C(=O)[C@H](N)Cc2ccc(Cl)cc2Cl)[C@@H](CCCNC(=N)N)CN1CCc1ccc2ccccc2c1 [Example 4, N-{3-[1-[2(R)-Amino-3-(2,4-dichloro-phenyl)-propionyl]-5(R)-isobutyl-4-(2-naphthalen-2-yl-ethyl)-piperazin-2(S)-yl]-propyl}-guanidine]
effect on AgRP-induced decrease in cAMP levels: reversal of AgRP-induced decrease in the levels of cAMP
